Assay [1] has as its system CD34+ cells. Description: Vector Copy Number analysis (qRT-PCR, viral LTR vs human beta-actin) after GFP+ lentivirus transduction. It is filed as cell-based. The procedure:
(§1) Pre-stimulated cells (Example 1) were counted after 18-24 hours of culture. The cells were collected and spun for 5 minutes at 1500 RPM. 1.2×10^6 pre-stimulated CD34^+ cells were resuspended in 60 uL 10× cytokines (1000 ng/mL SCF, 1000 ng/mL TPO, 1000 ng/mL FltL, and 300 ng/mL IL-3), 7.8 uL protamine sulfate, 111 uL viral supernatant, and 361.2 uL SCGM. 90 uL cell/virus suspension (about 200,000 cells) was added to each well of a standard non-adherent 96-well plate. dmPGE2 was added during this viral transduction step at a final concentration of 100 uM, 50 uM, 25 uM, 12.5 uM, 1 uM, or 0 uM.
(§2) Washed cells were resuspended in 200 uL SCGM+1× cytokines (as described in Example 1) and transferred to a standard 12-well non-adherent tissue culture plate containing an additional 800 uL SCGM+1× cytokines Cells were maintained for an additional 6 days in a standard humidified tissue culture incubator (5% CO2) and then subjected Vector Copy Number analysis (Example 5) and FACS analysis. For FACS analysis, cells were assayed for the presence of a virally-encoded transgene, green fluorescent protein (GFP). The frequency of the virally-labeled cells within the pool of cultured cells was quantified as the frequency of GFP+ cells within the population. The mean fluorescence intensity of labeled cells was quantified.
Briefly, total genomic DNA was isolated from cells through standard protocols (for example, through DNEasy columns from Qiagen). Genomic DNA was subjected to quantitative real-time polymerase chain reaction (qRT-PCR) with TaqMan probes for viral LTR and human beta-actin. The Ct values for viral signal and beta-actin signal were normalized to a standardized control, and the number of viral copies per copy of beta actin were calculated. A linear relationship between the vector copy number and the mean fluorescence intensity (Example 4) was observed when a viral construct that encodes GFP was used.
(§3) Tables 3A-C indicate the dose-response of dmPGE2 in promoting viral transduction of CD34+ cells for three separate experiments. CD34+ cells were thawed and pre-stimulated with SCF, TPO, FltL, and IL3, then transduced (A) with GFP+ lentivirus at a multiplicity of infection of 25, (B) with GFP+ lentivirus at a multiplicity of infection of 5, or (C) transduced with an ALD (ABCD1)-expressing lentivirus at a multiplicity of infection of 25. Cells were exposed to dmPGE2 during the viral transduction step (24-48 hours of culture). Cells were then washed and analyzed by flow cytometry and PCR after approximately 1 week in culture. The percentage of cells positive for GFP (A, B) or ALD (C) via FACS staining is indicated, along with the mean fluorescent intensity (MFI) and vector copy number (VCN) (A, B).
In general terms: In qPCR the cycle at which signal appears reflects the starting amount.

The test system of assay [2] is CD34+ cells. Description: 7-Day liquid culture, FACS for GFP after transduction with GFP+ lentivirus in presence of dmPGE2. It is filed as cell-based, human. Particulars: for % Positive (GFP): ~1 week in culture. On the procedure:
One vial of CD34+ cells (AllCells) were thawed by incubating at 37° C. for 1-2 minutes and contents were transferred to 10 mL Stem Cell Growth Media (hereafter referred to as SCGM) in a 15-mL conical tube. Cells were spun for 5 minutes at 1500 RPM in a standard tabletop centrifuge, resuspended in 10 mL SCGM and counted on a hemacytometer. A volume correlating with an appropriate number of cells was transferred to a fresh 15-mL conical tube, and again spun for 5 minutes at 1500 RPM. Cells were resuspended to the desired cell concentration in SCGM+1× cytokines (100 ng/mL SCF, 100 ng/mL TPO, 100 ng/mL FltL, and 30 ng/mL IL-3), and plated on a sterile non-adherent surface at 37° C. in a standard humidified tissue culture incubator (5% CO2).
as §1
Aliquots of 10 mM dmPGE2 in DMSO were prepared from 1 mg previously processed dmPGE2 (Cayman Chemicals). Briefly, air was pipetted into the vial of dmPGE2 until methyl acetate was evaporated. 263 uL DMSO was added to the PGE2 remaining in the vial, and aliquots of 25 uL were added to 1.5 mL Eppendorf tubes and stored at −80° C. 10× working stock solutions were prepared by serial dilution of dmPGE2 in SCGM, and were then added to cells at appropriate working concentrations, according to Table 2. Cells were then incubated at 37° C. in a standard humidified tissue culture incubator (5% CO2).
After 24 hours of culture with virus and dmPGE2, cells were washed prior to subsequent functional validation assays. Washing was performed by transferring cells to a 96-well U-bottom plate and spinning for 5 minutes at 1500 RPM in a standard tabletop centrifuge. Media was aspirated and cells were resuspended in 200 uL SCGM. Cells were spun again for 5 minutes at 1500 RPM and media was aspirated. Cells were again resuspended in 200 uL SCGM then spun for 5 minutes at 1500 RPM, and again the media was aspirated. Particular functional validation assays are described below.
as §2
as §3, with “The percentage of cells positive for GFP (A, B) or ALD (C) via FACS staining is indicated, along with the mean fluorescent intensity (MFI) and vector copy number (VCN) (A, B).” left out

Where [3] appears, read: dmPGE2 12.5 uM during transduction, GFP MOI 5.
Where [4] appears, read: dmPGE2 12.5 uM during transduction, GFP MOI 25.
[5] abbreviates: dmPGE2 25 uM during transduction, GFP MOI 5.
[6] abbreviates: dmPGE2 50 uM during transduction, GFP MOI 5.
The mark [7] stands for this setting: dmPGE2 50 uM during transduction, GFP MOI 25.
[8] abbreviates: dmPGE2 100 uM during transduction, GFP MOI 5.
[9] abbreviates: dmPGE2 100 uM during transduction, GFP MOI 25.

Each structure is given as a SMILES string.

As to `CCCCC(C)(C)[C@H](O)/C=C/[C@H]1[C@H](O)CC(=O)[C@@H]1C/C=C\CCCC(=O)O` [dmPGE2, 16,16-dimethyl PGE2], the “VCN (vector copy number)” value turned out to be 0.18 in the assay on CD34+ cells [1] (setting [3]); 1.5 in the assay with CD34+ cells [1] (setting [4]); 0.21 with CD34+ cells [1] (setting [5]); 1.7 with CD34+ cells [1] (dmPGE2 25 uM during transduction, GFP MOI 25); 0.715 with CD34+ cells [1] (setting [6]); 2.2 in the assay on CD34+ cells [1] (setting [7]). The “VCN (vector copy number)” value in the assay with CD34+ cells [1] (setting [8]) is 0.83; in the assay with CD34+ cells [1] (setting [9]) it was 3.55. Besides, the “% Positive (GFP)” value in the assay on CD34+ cells [2] (dmPGE2 12.5 uM during transduction (24-48 hours of culture), GFP MOI 5) amounted to 17.84%; in the assay with CD34+ cells [2] (dmPGE2 12.5 uM during transduction (24-48 hours of culture), GFP MOI 25) it was 54.71%; in the assay with CD34+ cells [2] (dmPGE2 25 uM during transduction (24-48 hours of culture), GFP MOI 5), 18.69%; in the assay on CD34+ cells [2] (dmPGE2 25 uM during transduction (24-48 hours of culture), GFP MOI 25), 59.99%; in the assay with CD34+ cells [2] (dmPGE2 50 uM during transduction (24-48 hours of culture), GFP MOI 5) it was 36.80%; in the assay with CD34+ cells [2] (dmPGE2 50 uM during transduction (24-48 hours of culture), GFP MOI 25), 67.62%. The “% Positive (GFP)” value came to 42.97% with CD34+ cells [2] (dmPGE2 100 uM during transduction (24-48 hours of culture), GFP MOI 5) and 81.53% with CD34+ cells [2] (dmPGE2 100 uM during transduction (24-48 hours of culture), GFP MOI 25). Also, the “MFI (mean fluorescent intensity)” value in the assay with CD34+ cells [2] (setting [3]) was 530,218.50; in the assay on CD34+ cells [2] (setting [4]) it was 759,442.75; in the assay on CD34+ cells [2] (setting [5]), 562,428.00; in the assay with CD34+ cells [2] (setting [6]), 656,703.50; in the assay with CD34+ cells [2] (setting [7]), 977,806.75; in the assay with CD34+ cells [2] (setting [8]), 732,716.25. For the same compound, in the assay with CD34+ cells [2] (setting [9]), the “MFI (mean fluorescent intensity)” value is 1,513,504.00.
